# Test results from ChEMBL document CHEMBL4422651, “Revisiting tubercidin against kinetoplastid parasites: Aromatic substitutions at position 7 improve activity and reduce toxicity” (Eur J Med Chem, 2019).
# Calls of active or inactive are those of the source. The calls are words filed in the database; no cut-off is given here.
# Key:
# [1] = test system: Trypanosoma brucei brucei; assay: Antitrypanosomal activity against Trypanosoma brucei brucei Squib 427 after 48 hrs by alamar blue assay; assay type: functional, organism-based; details: Squib 427, 48 h
# [2] = test system: Trypanosoma brucei rhodesiense; assay: Antitrypanosomal activity against Trypanosoma brucei rhodesiense STIB-900 after 48 hrs by alamar blue assay; assay type: functional, organism-based; details: STIB-900, 48 h
# MRC5 = assay: Cytotoxicity against human MRC5 cells assessed as reduction in cell viability after 3 days by resazurin dye-based assay; details: MRC5, 72 h
# [3] = Selectivity index, ratio of EC50 for human MRC5 cells to EC50 for Trypanosoma brucei brucei Squib 427; assay type: toxicity; details: read-out: Ratio EC50
# [4] = Selectivity index, ratio of EC50 for human MRC5 cells to EC50 for Trypanosoma brucei rhodesiense STIB-900; assay type: toxicity; details: read-out: Ratio EC50
# Trypanosoma cruzi [5] = assay: Antitrypanosomal activity against nifurtimox-sensitive Trypanosoma cruzi Tulahuen CL2 harboring beta-galactosidase infected in human MRC5 cells after 7 days by resazurin dye-based assay; assay type: functional, organism-based
# [6] = Selectivity index, ratio of EC50 for human MRC5 cells to EC50 for nifurtimox-sensitive Trypanosoma cruzi Tulahuen CL2 harboring beta-galactosidase; assay type: toxicity; details: read-out: Ratio EC50
# Trypanosoma cruzi [7] = assay: Potency index, ratio of EC50 for benznidazole to EC50 for test compound for antitrypanosomal activity against nifurtimox-sensitive Trypanosoma cruzi Tulahuen CL2 harboring beta-galactosidase infected in human MRC5 cells after 7 days by resazurin dye-based assay; assay type: functional
# Trypanosoma brucei [8] = assay: Antitrypanosomal activity against wild type Trypanosoma brucei Lister 427 after 48 hrs by alamar blue assay; assay type: functional, organism-based; details: Lister 427, 48 h
# Trypanosoma brucei [9] = assay: Antitrypanosomal activity against Trypanosoma brucei TbAT1-KO after 48 hrs by alamar blue assay; assay type: functional, organism-based
# Trypanosoma brucei [10] = assay: Antitrypanosomal activity against pentamidine/diminazene/melaminophenyl arsenical resistant Trypanosoma brucei B48 after 48 hrs by alamar blue assay; assay type: functional, organism-based; details: B48, 48 h
# Trypanosoma brucei [11] = assay: Antitrypanosomal activity against isometamidium resistant Trypanosoma brucei ISMR1 after 48 hrs by alamar blue assay; assay type: functional, organism-based; details: ISMR1, 48 h
# Trypanosoma congolense = assay: Antitrypanosomal activity against Trypanosoma congolense by resazurin assay; assay type: functional, organism-based
# [12] = Inhibition of [3H]-adenosine transport at Trypanosoma brucei Adenosine transporter P1 expressed in pentamidine/diminazene/melaminophenyl arsenical resistant Trypanosoma brucei B48 bloodstream forms after 60 secs by scintillation counting analysis
# [13] = Inhibition of [3H]-adenosine transport at Trypanosoma brucei Adenosine transporter P2 expressed in pentamidine/diminazene/melaminophenyl arsenical resistant Trypanosoma brucei B48 bloodstream forms after 60 secs by scintillation counting analysis
Structure (SMILES),EC50 [1] [µM],EC50 [2] [µM],EC50 (MRC5) [µM],selectivity ratio [3],selectivity ratio [4],Activity (Trypanosoma cruzi [5]),also measured
Nc1ncnc2c1c(-c1ccccc1F)cn2[C@@H]1O[C@H](CO)[C@@H](O)[C@H]1O,33.3,26.3,61,1.8,2.3,inactive,–
COc1ccc(-c2cn([C@@H]3O[C@H](CO)[C@@H](O)[C@H]3O)c3ncnc(N)c23)cc1,41.6,–,28,0.67,–,inactive,–
Nc1ncnc2c1c(-c1cncnc1)cn2[C@@H]1O[C@H](CO)[C@@H](O)[C@H]1O,52.4,–,> 64,> 1.2,–,inactive,–
Nc1ncnc2c1c(-c1ccc(F)cc1)cn2[C@@H]1O[C@H](CO)[C@@H](O)[C@H]1O,8.81,14.7,> 64,> 7.3,> 4.4,–,"EC50 (Trypanosoma cruzi [5]; Tulahuen CL2, MRC5, 168 h): 0.49 µM; selectivity ratio [6]: > 130; Ratio EC50 (Trypanosoma cruzi [7]): <=10"
O=C(Cn1ccnc1[N+](=O)[O-])NCc1ccccc1 [BENZNIDAZOLE],–,–,> 64,–,–,–,selectivity ratio [6]: > 23
Nc1ncnc2c1c(-c1ncccn1)cn2[C@@H]1O[C@H](CO)[C@@H](O)[C@H]1O,2.26,–,14.3,6.3,–,inactive,–
Cc1ccc(-c2cn([C@@H]3O[C@H](CO)[C@@H](O)[C@H]3O)c3ncnc(N)c23)cc1,29.1,–,26.2,0.9,–,inactive,–
Nc1ncnc2c1c(-c1cnccn1)cn2[C@@H]1O[C@H](CO)[C@@H](O)[C@H]1O,1.95,–,0.55,0.28,–,inactive,–
Nc1ncnc2c1c(-c1ccc3ccccc3n1)cn2[C@@H]1O[C@H](CO)[C@@H](O)[C@H]1O,6.45,3.72,> 64,> 9.9,> 17,inactive,–
Nc1ncnc2c1c(-c1cccc(Cl)c1)cn2[C@@H]1O[C@H](CO)[C@@H](O)[C@H]1O,9.9,6.88,32.8,3.3,4.8,inactive,–
Cn1cnc(-c2cn([C@@H]3O[C@H](CO)[C@@H](O)[C@H]3O)c3ncnc(N)c23)c1,4.76,–,23.4,4.9,–,inactive,–
COc1ccnc(-c2cn([C@@H]3O[C@H](CO)[C@@H](O)[C@H]3O)c3ncnc(N)c23)c1,25.5,8.15,7.59,0.3,0.9,inactive,–
CC[n+]1c(-c2ccccc2)c2cc(N/N=N/c3cccc(C(=N)N)c3)ccc2c2ccc(N)cc21 [ISOMETAMIDIUM],–,–,–,–,–,–,EC50 (Trypanosoma brucei [8]): 0.65 µM; EC50 (Trypanosoma brucei [9]): 0.75 µM; EC50 (Trypanosoma brucei [10]): 0.56 µM; EC50 (Trypanosoma brucei [11]): 3.1 µM
Cn1cncc1-c1cn([C@@H]2O[C@H](CO)[C@@H](O)[C@H]2O)c2ncnc(N)c12,33.3,–,> 64,> 1.9,–,inactive,–
Nc1ncnc2c1c(-c1ccc3ccccc3c1)cn2[C@@H]1O[C@H](CO)[C@@H](O)[C@H]1O,7.83,6.79,7.53,0.96,1.2,inactive,–
Nc1ncnc2c1c(-c1ccc(Cl)cc1)cn2[C@@H]1O[C@H](CO)[C@@H](O)[C@H]1O,7.58,–,27,3.6,–,–,selectivity ratio [6]: 57.4; Ratio EC50 (Trypanosoma cruzi [7]): <=10
Nc1ncnc2c1c(-c1cc3ccccc3cn1)cn2[C@@H]1O[C@H](CO)[C@@H](O)[C@H]1O,14.7,6.16,> 64,> 4.4,> 10,inactive,–
Nc1ncnc2c1c(-c1cc(Cl)cc(Cl)c1)cn2[C@@H]1O[C@H](CO)[C@@H](O)[C@H]1O,8.17,3.66,> 64,> 7.8,> 17,inactive,–
N=C(N)c1ccc(/N=N/Nc2ccc(C(=N)N)cc2)cc1 [DIMINAZENE],–,–,–,–,–,–,EC50 (Trypanosoma brucei [8]): 0.42 µM; EC50 (Trypanosoma brucei [9]): 4.5 µM; EC50 (Trypanosoma brucei [10]): 7.2 µM; EC50 (Trypanosoma brucei [11]): 2.9 µM; EC50 (Trypanosoma congolense): 0.22 µM
Nc1ncnc2c1c(-c1nccc3ccccc13)cn2[C@@H]1O[C@H](CO)[C@@H](O)[C@H]1O,> 64,55.6,> 64,–,> 1.2,inactive,–
Cc1ccnc(-c2cn([C@@H]3O[C@H](CO)[C@@H](O)[C@H]3O)c3ncnc(N)c23)c1,38.2,25.1,> 64,> 1.7,> 2.5,inactive,–
Cc1ccc(C(=O)Nc2ccc(S(=O)(=O)O)c3cc(S(=O)(=O)O)cc(S(=O)(=O)O)c23)cc1NC(=O)c1cccc(NC(=O)Nc2cccc(C(=O)Nc3cc(C(=O)Nc4ccc(S(=O)(=O)O)c5cc(S(=O)(=O)O)cc(S(=O)(=O)O)c45)ccc3C)c2)c1 [SURAMIN],0.05,0.04,> 64,> 1280,> 1600,–,–
Nc1ncnc2c1c(-c1ccccc1)cn2[C@@H]1O[C@H](CO)[C@@H](O)[C@H]1O,32.3,4.1,56.2,1.7,14,inactive,–
Nc1ncnc2c1c(-c1ccc(Cl)cn1)cn2[C@@H]1O[C@H](CO)[C@@H](O)[C@H]1O,8.97,4.6,> 64,> 7.1,> 13,inactive,–
Nc1ncnc2c1c(-c1cccc(Cl)n1)cn2[C@@H]1O[C@H](CO)[C@@H](O)[C@H]1O,1.75,0.62,> 64,> 37,> 103,inactive,–
Nc1ncnc2c1c(-c1cccnc1)cn2[C@@H]1O[C@H](CO)[C@@H](O)[C@H]1O,> 64,–,> 64,–,–,inactive,Ki [12]: 21.7 µM; Ki [13]: 49.3 µM
Nc1ncnc2c1c(-c1cc(Cl)ccn1)cn2[C@@H]1O[C@H](CO)[C@@H](O)[C@H]1O,8.92,6.88,27.3,3.1,4,inactive,–
N=C(N)c1ccc(OCCCCCOc2ccc(C(=N)N)cc2)cc1 [PENTAMIDINE],–,–,–,–,–,–,EC50 (Trypanosoma brucei [8]): 0.011 µM; EC50 (Trypanosoma brucei [9]): 0.018 µM; EC50 (Trypanosoma brucei [10]): 0.99 µM; EC50 (Trypanosoma brucei [11]): 0.14 µM; EC50 (Trypanosoma congolense): 1.9 µM
Nc1ncnc2c1c(-c1ccncc1)cn2[C@@H]1O[C@H](CO)[C@@H](O)[C@H]1O,> 64,–,55.8,–,–,inactive,Ki [12]: 12.5 µM; Ki [13]: 9.34 µM
Nc1ncnc2c1c(-c1ccc(F)cn1)cn2[C@@H]1O[C@H](CO)[C@@H](O)[C@H]1O,4.77,1.69,> 64,> 13,> 38,inactive,–
